Results published in PubChem BioAssay (NCI).
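Exposure lasted 48 hours, with cells grown in 96-well plates and compounds tested at five concentrations. TGI: concentration producing complete growth inhibition.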

How the values were obtained:
Experiment in all cases: DTP human tumour cell line panel, 48 h
[1] = test system: SK-OV-3 ovarian
[2] = test system: MALME-3M melanoma
[3] = test system: COLO 205 colon
[4] = test system: SF-295 CNS
[5] = test system: K-562 leukemia
[6] = test system: DLD-1 colon
[7] = test system: U251 CNS
[8] = test system: TK-10 renal
[9] = test system: SK-MEL-28 melanoma
[10] = test system: HOP-92 NSCLC
[11] = test system: NCI-H522 lung
[12] = test system: HT29 colon
[13] = test system: CCRF-CEM leukemia
[14] = test system: SNB-75 CNS
[15] = test system: HCT-15 colon
[16] = test system: LOX IMVI melanoma
[17] = test system: SNB-78 CNS
[18] = test system: CAKI-1 renal
[19] = test system: OVCAR-4 ovarian
[20] = test system: M14 melanoma

Compound	TGI [1]	TGI [2]	TGI [3]	TGI [4]	TGI [5]	TGI [6]	TGI [7]	TGI [8]	TGI [9]	TGI [10]	TGI [11]	TGI [12]	TGI [13]	TGI [14]	TGI [15]	TGI [16]	TGI [17]	TGI [18]	TGI [19]	TGI [20]
Cc1nc2c(sc(=S)n2-c2ccccc2)c(=O)[nH]1	> 100 µM	> 100 µM	> 100 µM	> 100 µM	> 100 µM	> 100 µM	> 100 µM	> 100 µM	> 100 µM	> 100 µM	> 100 µM	> 100 µM	> 100 µM	–	–	–	–	–	–	–
COc1ccccc1Cc1nc(-c2ccccc2)nn(C2OC(COC(C)=O)C(OC(C)=O)C(OC(C)=O)C2OC(C)=O)c1=S (stereo not drawn)	> 67.2 µM	72.3 µM	> 86.9 µM	> 69.4 µM	> 100 µM	> 100 µM	> 31.6 µM	–	> 100 µM	24.4 µM	36.4 µM	> 100 µM	> 100 µM	15.4 µM	84.6 µM	> 100 µM	> 70.1 µM	32.9 µM	8.58 µM	–
COc1ccc(C2N(NC(=O)c3ccncc3)C(=O)CS2(=O)=O)cc1F (stereo not drawn)	> 100 µM	> 100 µM	> 100 µM	> 100 µM	–	> 100 µM	> 100 µM	> 100 µM	> 100 µM	> 100 µM	> 100 µM	> 100 µM	> 100 µM	> 100 µM	> 100 µM	> 100 µM	> 100 µM	> 100 µM	> 100 µM	> 100 µM
COc1cc2c(cc1OC)C(Cl)C(c1ccc(Cl)c(Cl)c1)=C2Cl (stereo not drawn)	40.5 µM	40.8 µM	28 µM	22 µM	> 100 µM	–	16.4 µM	48.7 µM	32.7 µM	15.1 µM	> 100 µM	12.2 µM	16.7 µM	23.9 µM	12.6 µM	5.75 µM	33.7 µM	25.1 µM	–	50.1 µM
COc1cc2cc[n+]3c(C)c4cc(OC)c(OC)cc4c([O-])c3c2cc1OC	> 100 µM	79.7 µM	48.3 µM	> 100 µM	> 100 µM	> 100 µM	> 100 µM	> 100 µM	> 100 µM	> 100 µM	42 µM	> 100 µM	> 100 µM	> 100 µM	> 100 µM	–	> 100 µM	> 100 µM	> 100 µM	> 100 µM
NCCCN(CCCN)CCN(CCN(CCCN)CCCN)CCN(CCCN)CCCN	> 100 µM	–	> 100 µM	> 100 µM	> 100 µM	–	> 100 µM	> 100 µM	> 100 µM	> 100 µM	63.3 µM	> 100 µM	–	22.9 µM	> 100 µM	> 100 µM	–	> 100 µM	> 100 µM	> 100 µM
COc1cc(C(C)c2cc3c(cc2OCCO)OCO3)cc(OC)c1OC (stereo not drawn)	–	> 100 µM	7.47 µM	2.24 µM	> 100 µM	> 100 µM	> 100 µM	> 100 µM	–	–	2.93 µM	> 100 µM	> 100 µM	4.34 µM	> 100 µM	> 100 µM	> 100 µM	> 100 µM	> 100 µM	> 100 µM
CCOC(=O)Cc1cc(OC)c(OC)cc1/C(Cl)=C(\C=O)c1ccc(OC)c(OC)c1	86 µM	74.3 µM	50.6 µM	29 µM	56.5 µM	48.8 µM	33.1 µM	90.8 µM	65.7 µM	10.3 µM	–	29.2 µM	–	> 100 µM	45.2 µM	36.4 µM	81.1 µM	75.5 µM	56.3 µM	32.1 µM
